Source: patent publication US9981023B2, “Compositions and methods for inducing immune tolerance” (The Scripps Research Institute, priority 2010, dated 2018)

Target: T1, CD22 (Mus musculus, UniProt P35329)
T1 sequence (P35329 22-868): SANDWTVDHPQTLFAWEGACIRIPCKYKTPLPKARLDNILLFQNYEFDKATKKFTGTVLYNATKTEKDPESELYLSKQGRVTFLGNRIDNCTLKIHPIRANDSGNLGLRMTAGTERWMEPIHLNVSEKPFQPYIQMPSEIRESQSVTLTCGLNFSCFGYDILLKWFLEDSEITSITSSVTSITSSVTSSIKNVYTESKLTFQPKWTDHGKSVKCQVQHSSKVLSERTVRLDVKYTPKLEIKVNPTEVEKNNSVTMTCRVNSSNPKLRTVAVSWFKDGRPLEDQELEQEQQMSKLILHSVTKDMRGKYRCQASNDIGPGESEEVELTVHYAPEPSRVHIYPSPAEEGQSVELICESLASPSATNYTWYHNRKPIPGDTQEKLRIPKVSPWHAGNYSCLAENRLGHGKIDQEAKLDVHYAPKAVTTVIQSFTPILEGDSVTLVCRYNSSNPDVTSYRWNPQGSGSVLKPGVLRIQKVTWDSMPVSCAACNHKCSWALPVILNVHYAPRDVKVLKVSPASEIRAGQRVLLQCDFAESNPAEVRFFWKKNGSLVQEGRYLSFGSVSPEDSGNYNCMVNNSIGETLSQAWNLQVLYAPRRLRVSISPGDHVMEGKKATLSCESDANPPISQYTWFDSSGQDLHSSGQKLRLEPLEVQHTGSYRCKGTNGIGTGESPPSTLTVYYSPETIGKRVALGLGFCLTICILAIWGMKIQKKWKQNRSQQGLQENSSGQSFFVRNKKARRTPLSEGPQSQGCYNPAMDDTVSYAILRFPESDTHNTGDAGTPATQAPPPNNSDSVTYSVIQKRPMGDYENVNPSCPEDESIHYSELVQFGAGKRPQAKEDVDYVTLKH
Experiment: Affinity of glycan ligand for CD22
Assay type: binding
Conditions: natural ligand of CD22 relative to ^BPANeuGc

CC(=O)NC1C(O)OC(CO)C(OC2OC(COC3(C(=O)O)CC(O)C(NC(=O)CO)C(C(O)C(O)CO)O3)C(O)C(O)C2O)C1O (stereo not shown) [NeuGcα2-6Galβ1-4GlcNAc]
affinity lower than the ^BPANeuGc ligand: approximately 200 fold
